Patent US20240252488A1 (KOREA RESEARCH INSTITUTE OF CHEMICAL TECHNOLOGY, priority 2020, published 2024)

Tests used:
FADD−/− Jurkat cells = experiment: Necroptosis inhibition assay, TNF-α-induced necroptosis (CellTiter-Glo 2.0); assay type: cell-based, human; conditions: TNF-α 15 ng/mL; for Necroptosis inhibition assay (Rescue %) 1 μM: compound 1 μM; for Necroptosis inhibition assay (Rescue %) 10 μM: compound 10 μM
Method in brief: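 Tested at three fixed concentrations (0.1, 1, 10 μM final) with a 30-minute room-temperature preincubation ahead of 15 ng/mL TNF-α challenge lasting 20 to 24 hours. Inhibition rate and cytotoxicity derive from ATP luminescence.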

MLKL [1] = molecular target: T1, MLKL (Homo sapiens, UniProt Q8NB16); experiment: MLKL degradation assay in HepG2 cell line (western blot); assay type: cell-based; set-up: endogenous in cells; host or cells: HepG2 or HaCaT; conditions: cell line not given; for Degradation assay (Degradation %) 1 μM: compound 1 μM; for Degradation assay (Degradation %) 10 μM: compound 10 μM
T1 sequence (Q8NB16 1-471): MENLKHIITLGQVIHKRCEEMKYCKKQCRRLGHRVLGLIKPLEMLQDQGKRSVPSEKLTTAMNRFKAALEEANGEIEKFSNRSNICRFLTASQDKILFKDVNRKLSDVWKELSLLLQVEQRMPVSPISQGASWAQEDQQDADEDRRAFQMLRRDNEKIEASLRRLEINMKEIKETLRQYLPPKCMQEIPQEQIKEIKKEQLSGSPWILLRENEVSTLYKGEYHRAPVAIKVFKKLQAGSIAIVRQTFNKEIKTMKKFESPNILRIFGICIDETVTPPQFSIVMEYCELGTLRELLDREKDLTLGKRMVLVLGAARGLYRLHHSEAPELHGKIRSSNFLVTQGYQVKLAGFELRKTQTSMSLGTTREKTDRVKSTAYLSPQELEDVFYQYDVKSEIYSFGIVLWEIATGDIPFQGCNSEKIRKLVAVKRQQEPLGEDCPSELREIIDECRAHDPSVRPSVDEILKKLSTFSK
Method in brief: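 Degradation is judged from MLKL band intensity on immunoblots of HepG2 lysates taken after 20-24 hours of compound at final 1 or 10 μM.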

MLKL [2] = molecular target: T1, MLKL; experiment: Measurement of binding affinity with MLKL receptor (competitive binding assay, Kd); set-up: made in house; host or cells: HEK 293 cell line (T7 phage in E. coli BL21-derived host is also described)
Method in brief: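 Kd comes from a bead-based competition format: compound-dependent loss of DNA-tagged, HEK 293-expressed MLKL capture, measured as eluate kinase by qPCR. Final DMSO is 0.9%.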

Compound	Necroptosis inhibition assay (Rescue %) 1 μM (FADD−/− Jurkat cells)	Necroptosis inhibition assay (Rescue %) 10 μM (FADD−/− Jurkat cells)	Degradation assay (Degradation %) 1 μM (MLKL [1])	Degradation assay (Degradation %) 10 μM (MLKL [1])	Kd (MLKL [2])	Necroptosis inhibition assay (Rescue %) 1 μM (FADD−/− Jurkat cells; FADD−/− Jurkat cells)	Necroptosis inhibition assay (Rescue %) 10 μM (FADD−/− Jurkat cells; FADD−/− Jurkat cells)	Necroptosis inhibition assay (Rescue %) 1.1 μM (FADD−/− Jurkat cells; compound 1.1 µM)
Nc1ncc(-c2cnn(C3CCN(C(=O)c4cn(C5CCN(C(=O)CNc6ccc7c(c6)C(=O)N(C6CCC(=O)NC6=O)C7=O)CC5)cn4)CC3)c2)nc1C(=O)O[C@@H](C(=O)Nc1ccc(F)cc1)c1ccccc1 (stereo partly drawn) [TDH-361, (R)-2-((4-fluorophenyl)amino)-2-oxo-1-phenylethyl 3-amino-6-(1-(1-(1-(1-((2-(2,6-dioxopiperidin-3-yl)-1,3-dioxoisoindolin-5-yl)glycyl)piperidin-4-yl)-1H-imidazole-4-carbonyl)piperidin-4-yl)-1H-pyrazol-4-yl)pyrazine-2-carboxylate]	19.10%	10.01%	51.1%	48.59%	1.7 nM			
Nc1ncc(-c2cnn(C3CCN(C[C@H]4CC[C@H](CNC(=O)C5CCN(c6ccc7c(c6)C(=O)N(C6CCC(=O)NC6=O)C7=O)CC5)CC4)CC3)c2)nc1C(=O)O[C@@H](C(=O)Nc1ccc(F)cc1)c1ccccc1 (stereo partly drawn) [TDH-350, (R)-2-((4-fluorophenyl)amino)-2-oxo-1-phenylethyl 3-amino-6-(1-(1-(((1r,4r)-4-((1-(2-(2,6-dioxopiperidin-3-yl)-1,3-dioxoisoindolin-5-yl)piperidine-4-carboxamido)methyl)cyclohexyl)methyl)piperidin-4-yl)-1H-pyrazol-4-yl)pyrazine-2-carboxylate]	39.64%	34.84%	86.13%	88.73%	3.7 nM			
Nc1ncc(-c2cnn(C3CCN(CC4CCN(C(=O)C5CN(c6ccc7c(c6)C(=O)N(C6CCC(=O)NC6=O)C7=O)C5)CC4)CC3)c2)nc1C(=O)O[C@@H](C(=O)Nc1ccc(F)cc1)c1ccccc1 (stereo partly drawn) [TDH-145, (R)-2-((4-fluorophenyl)amino)-2-oxo-1-phenylethyl 3-amino-6-(1-(1-((1-(1-(2-(2,6-dioxopiperidin-3-yl)-1,3-dioxoisoindolin-5-yl)azetidine-3-carbonyl)piperidin-4-yl)methyl)piperidin-4-yl)-1H-pyrazol-4-yl)pyrazine-2-carboxylate]	51.47%	40.41%	36.97%	55.66%	2.5 nM			
Nc1ncc(-c2cnn(C3CCN(C(=O)C4CCN(C(=O)C5CN(c6ccc7nnn(C8CCC(=O)NC8=O)c(=O)c7c6)C5)CC4)CC3)c2)nc1C(=O)O[C@@H](C(=O)Nc1ccc(F)cc1)c1ccccc1 (stereo partly drawn) [TDH-409, (R)-2-((4-fluorophenyl)amino)-2-oxo-1-phenylethyl 3-amino-6-(1-(1-(1-(1-(3-(2,6-dioxopiperidin-3-yl)-4-oxo-3,4-dihydrobenzo[d][1,2,3]triazin-6-yl)azetidine-3-carbonyl)piperidine-4-carbonyl)piperidin-4-yl)-1H-pyrazol-4-yl)pyrazine-2-carboxylate]			81.20%	71.90%	1.6 nM	39.62%	24.45%	
Nc1ncc(-c2cnn(C3CCN(CCOC4CCN(C(=O)CNc5cccc6c5C(=O)N(C5CCC(=O)NC5=O)C6=O)CC4)CC3)c2)nc1C(=O)OC(C(=O)Nc1ccc(F)cc1)c1ccccc1 (stereo not shown) [TDH-249, 2-((4-fluorophenyl)amino)-2-oxo-1-phenylethyl 3-amino-6-(1-(1-(2-((1-((2-(2,6-dioxopiperidin-3-yl)-1,3-dioxoisoindolin-4-yl)glycyl)piperidin-4-yl)oxy)ethyl)piperidin-4-yl)-1H-pyrazol-4-yl)pyrazine-2-carboxylate]	45.5%	44.81%	35.81%	28.42%	5.4 nM			
Nc1ncc(-c2cnn(C3CCN(CC4CCN(CC(=O)NCCNc5cccc6c5C(=O)N(C5CCC(=O)NC5=O)C6=O)CC4)CC3)c2)nc1C(=O)OC(C(=O)Nc1ccc(F)cc1)c1ccccc1 (stereo not shown) [TDH-234, 2-((4-fluorophenyl)amino)-2-oxo-1-phenylethyl 3-amino-6-(1-(1-((1-(2-((2-((2-(2,6-dioxopiperidin-3-yl)-1,3-dioxoisoindolin-4-yl)amino)ethyl)amino)-2-oxoethyl)piperidin-4-yl)methyl)piperidin-4-yl)-1H-pyrazol-4-yl)pyrazine-2-carboxylate]	35.55%	26.56%	64.08%	54.89%	1.6 nM			
Nc1ncc(-c2cnn(C3CCN(CCCN4CC5CC4CN5C(=O)CNc4ccc5c(c4)C(=O)N(C4CCC(=O)NC4=O)C5=O)CC3)c2)nc1C(=O)O[C@@H](C(=O)Nc1ccc(F)cc1)c1ccccc1 (stereo partly drawn) [TDH-454, (R)-2-((4-fluorophenyl)amino)-2-oxo-1-phenylethyl 3-amino-6-(1-(1-(3-(5-((2-(2,6-dioxopiperidin-3-yl)-1,3-dioxoisoindolin-5-yl)glycyl)-2,5-diazabicyclo[2.2.1]heptan-2-yl)propyl)piperidin-4-yl)-1H-pyrazol-4-yl)pyrazine-2-carboxylate]			87.16%	90.47%	2 nM	65.44%	39.99%	
Nc1ncc(-c2cnn(C3CCN(C(=O)c4cn(C5CCN(C(=O)C6CCN(c7ccc8c(c7)C(=O)N(C7CCC(=O)NC7=O)C8=O)CC6)CC5)cn4)CC3)c2)nc1C(=O)O[C@@H](C(=O)Nc1ccc(F)cc1)c1ccccc1 (stereo partly drawn) [TDH-363, (R)-2-((4-fluorophenyl)amino)-2-oxo-1-phenylethyl 3-amino-6-(1-(1-(1-(1-(1-(2-(2,6-dioxopiperidin-3-yl)-1,3-dioxoisoindolin-5-yl)piperidine-4-carbonyl)piperidin-4-yl)-1H-imidazole-4-carbonyl)piperidin-4-yl)-1H-pyrazol-4-yl)pyrazine-2-carboxylate]	32.65%	27.11%	76.83%	69.84%	2.9 nM			
COc1ccc(C(=O)NCC2CCC(CN3CCC(n4cc(-c5cnc(N)c(C(=O)O[C@@H](C(=O)Nc6ccc(F)cc6)c6ccccc6)n5)cn4)CC3)CC2)cc1N1CCC(=O)NC1=O (stereo partly drawn) [TDH-497, (R)-2-((4-fluorophenyl)amino)-2-oxo-1-phenylethyl 3-amino-6-(1-(1-(((1r,4r)-4-((3-(2,4-dioxotetrahydropyrimidin-1(2H)-yl)-4-methoxybenzamido)methyl)cyclohexyl)methyl)piperidin-4-yl)-1H-pyrazol-4-yl)pyrazine-2-carboxylate]			73.89%	57.10%	0.61 nM	13.48%	−1.14%	
Nc1ncc(-c2cnn(C3CCN(CCCN4CCN(C(=O)COc5ccc6c(c5)C(=O)N(C5CCC(=O)NC5=O)C6=O)CC4)CC3)c2)nc1C(=O)O[C@@H](C(=O)Nc1ccc(F)cc1)c1ccccc1 (stereo partly drawn) [TDH-358, (R)-2-((4-fluorophenyl)amino)-2-oxo-1-phenylethyl 3-amino-6-(1-(1-(3-(4-(2-((2-(2,6-dioxopiperidin-3-yl)-1,3-dioxoisoindolin-5-yl)oxy)acetyl)piperazin-1-yl)propyl)piperidin-4-yl)-1H-pyrazol-4-yl)pyrazine-2-carboxylate]		39.65%	91.6%	86.73%	0.5 nM			100.10 (1.1 µM) %
Nc1ncc(-c2cnn(C3CCN(CCOC4CCN(C(=O)CC5CCN(c6ccc7c(c6)C(=O)N(C6CCC(=O)NC6=O)C7=O)CC5)CC4)CC3)c2)nc1C(=O)O[C@@H](C(=O)Nc1ccc(F)cc1)c1ccccc1 (stereo partly drawn) [TDH-372, (R)-2-((4-fluorophenyl)amino)-2-oxo-1-phenylethyl 3-amino-6-(1-(1-(2-((1-(2-(1-(2-(2,6-dioxopiperidin-3-yl)-1,3-dioxoisoindolin-5-yl)piperidin-4-yl)acetyl)piperidin-4-yl)oxy)ethyl)piperidin-4-yl)-1H-pyrazol-4-yl)pyrazine-2-carboxylate]	26.36%	28.54%	78.14%	81.79%	12 nM			
